Source: patent US20100178293A1 (priority 2007, published 2010)

Experiments:
[1] = tested on: RML prion; format: in vivo, mice; conditions: Example 1; RML prion i.p.; Campath 100 μg i.v.
[2] = tested on: Tg2576 Tg+ mice; assay: Tg2576 mouse model of Alzheimer's disease (Example 2); format: in vivo; conditions: 100 μg i.v. weekly for 6 months
Procedure: Ten-month-old male and female Tg2576 Tg+ and Tg− are used (n=10 animals/group). Tg+ mice are treated with Campath 100 μg i.v. weekly for 6 months or placebo (saline), respectively before being sacrificed. TG− mice served as controls Animals are perfused before brain dissection with 0.9% normal saline followed by HEPES buffer, pH 7.2, containing protease inhibitors. […] Tg+ mice fed chow containing ibuprofen for 6 months serve as positive treatment control.

[3] = tested on: mouse model for Alzheimer's disease; conditions: literature, Lim et al. 2000; cited from earlier work

Compound | inhibition of the spread of prions in an animal model [1] | activity in a mouse model of Alzheimer's disease [2] | plaque pathology and inflammation in a mouse model for Alzheimer's disease [3]
alemtuzumab [Campath] | can inhibit the spread of prions | active | –
CC(C)Cc1ccc(C(C)C(=O)O)cc1 (stereo not drawn) [Ibuprofen] | – | – | suppresses plaque pathology and inflammation
